The data set is described as follows: Release rate of a volatile compound from a model manually replenished system (mass loss of vials through a mass-regulating barrier). The data set is classed as physicochemical. As to conditions: low-density polyethylene barrier, 0.004 inch-thick; air about 1.4 m/s; substantially constant over 133 days in the laboratory (FIG. 5). The method, then:
Experimental release rates of a volatile compound from a model manually replenished system were measured as a function of time. Glass screw-thread sample vials with PTFE/silicone septa and open-top polypropylene caps contained the volatile liquid compound. Two different sizes of vials were employed: small 8 mL capacity (17 mm O.D. and 63 mm height) and large 40 mL capacity (28 mm O.D. and 98 mm height). The test volatile compound selected for study was dimethyldisulfide (DMDS). Duplicate samples of 5.5 mL and 30 mL of DMDS were added to the small and large vials, respectively. Then a mass-regulating barrier was placed on the top of each vial, and the open-top cap was tightly screwed to seal the vial contents. The diameters of the mass-regulating barriers for the small and large vials were 13.4 and 22.0 mm, respectively. In addition, the diameters of the openings in the caps for the small and large vials were 8.78 mm and 14.62 mm, respectively. Each vial with barrier, cap and liquid contents was then immediately weighed on an analytical balance. Next, the vials were placed in a dedicated laboratory fume hood. Ambient air with a bulk velocity of about 1.4 m/s (or 3 mph) passed over the vials. […] From these primary measurements the release rate for each […] was determined as a function of time. […]

In turn, `CSSC` [DMDS, dimethyldisulfide] registered a release rate of 26 mg/day.

(Values after patent US9185897B2, “Methods to deliver and maintain volatile compounds” (AUBURN UNIVERSITY, priority 2010, dated 2015).)
